Patent publication US7375080B1, “Immobilized lactoferrin (Im-LF) antimicrobial agents and uses thereof” (priority 1999, dated 2008)
Read-outs that look alike come from different tables or passages of the source.

What was measured:
[1] = tested on: E. coli serotype O157:H7 (strain ATCC43895); format: cell-based
[2] = tested on: E. coli O157:H7 strain ATCC43895; test: Microbial adhesion assay: detachment of 3H-thymidine labeled bacteria from beef tissue by wash; format: cell-based

| Compound | GROWTH (%) [1] [%] | % BACTERIAL CELLS DETACHED IN 1-MINUTE [2] [%] | % BACTERIAL CELLS DETACHED IN 1-MINUTE ([2]; Lean tissue (beef)) [%] | % BACTERIAL CELLS DETACHED IN 1-MINUTE ([2]; Surface tissue (neck) (beef)) [%] |
| --- | --- | --- | --- | --- |
| O=C(O)CC(O)(CC(=O)O)C(=O)O [0.001 M citric acid, citric acid] | 103 | – | – | – |
| O=C([O-])O.[Na+] [0.01 M sodium bicarbonate, sodium bicarbonate] | 112 | – | – | – |
| [Cl-].[Na+] [0.1 M sodium chloride, sodium chloride] | 100 | – | – | – |
| CC(O)C(=O)O (stereo not drawn) [Lactic acid (2%), Lactic acid] | – | 68 | 75 | 62 |
